Assay results from patent publication US20230183193A1, “4-DIFLUOROMETHYL BENZOYL AMIDES WITH HERBICIDAL ACTION” (BAYER CROPSCIENCE AKTIENGESELLSCHAFT, priority 2017, published 2023).

Experiments:
Assay type in all cases: in vivo
Abutilon theophrasti [1] = assay: Pre-emergence herbicidal action, ABUTH; conditions: dosage 320 g/ha, scored visually after 3 weeks vs untreated controls
From the text: (§1) 1. Pre-Emergence Herbicidal Action Against Harmful Plants Seeds of monocotyledonous and dicotyledonous weed plants and crop plants are laid out in sandy loam soil in wood-fiber pots and covered with soil. The compounds of the invention, formulated in the form of wettable powders (WP) or as emulsion concentrates (EC), are then applied to the surface of the covering soil in the form of an aqueous suspension or emulsion at a water application rate equating to […], with addition of 0.2% wetting agent. After the treatment, the pots are placed in a greenhouse and kept under good growth conditions for the trial plants. The damage to the test plants is scored visually after a test period of 3 weeks by comparison with untreated controls (herbicidal activity in percent (%): 100% activity=the plants have died, 0% activity=like control plants).
(§2) For comparison, the herbicidal activity of numerous compounds according to the invention was tested with the structurally closest compounds known from the documents WO 2011/035874, WO 2012/028579 and WO 2012/126932, by the pre- and post-emergence method.

Amaranthus retroflexus [2] = assay: Pre-emergence herbicidal action, AMARE; conditions: dosage 320 g/ha, scored visually after 3 weeks vs untreated controls
From the text: as §1, §2

Matricaria inodora = assay: Pre-emergence herbicidal action, MATIN; conditions: dosage 320 g/ha, scored visually after 3 weeks vs untreated controls
From the text: as §1, §2

Stellaria media [3] = assay: Pre-emergence herbicidal action, STEME; conditions: dosage 320 g/ha, scored visually after 3 weeks vs untreated controls
From the text: as §1, §2

Viola tricolor [4] = assay: Pre-emergence herbicidal action, VIOTR; conditions: dosage 320 g/ha, scored visually after 3 weeks vs untreated controls
From the text: as §1, §2

Abutilon theophrasti [5] = assay: Post-emergence herbicidal action, ABUTH; conditions: 80 g/ha, Table D
Method: (§3) Seeds of monocotyledonous and dicotyledonous weed and crop plants are laid out in sandy loam soil in wood-fiber pots, covered with soil and cultivated in a greenhouse under good growth conditions. 2 to 3 weeks after sowing, the test plants are treated at the one-leaf stage. The compounds of the invention, formulated in the form of wettable powders (WP) or as emulsion concentrates (EC), are then sprayed onto the green parts of the plants in the form of an aqueous suspension or emulsion at a water application rate equating to […], with addition of 0.2% wetting agent. After the test plants have been left to stand in the greenhouse under optimal growth conditions for about 3 weeks, the action of the preparations is assessed visually in comparison to untreated controls (herbicidal action in percent (%): 100% activity=the plants have died, 0% activity=like control plants). […] At the same time, inventive compounds leave Gramineae crops such as barley, wheat, rye, millet/sorghum, corn or rice virtually undamaged when applied post-emergence, even at high active compound dosages. In addition, some substances are also harmless to dicotyledonous crops such as soya, cotton, oilseed rape, sugar beet or potatoes. Some of the compounds according to the invention have high selectivity and are therefore suitable for controlling unwanted vegetation in agricultural crops by the post-emergence method. The data of Tables C and D below illustrate, in an exemplary manner, the […] herbicidal action of the compounds according to the invention, the herbicidal activity being stated in percent.
as §2

Amaranthus retroflexus [6] = assay: Post-emergence herbicidal action, AMARE; conditions: 80 g/ha, Table D
Method: as §3, §2

Setaria viridis [7] = assay: Post-emergence herbicidal action, SETVI; conditions: 80 g/ha, Table C
Method: as §3, §2

Stellaria media [8] = assay: Post-emergence herbicidal action, STEME; conditions: 80 g/ha, Table D
Method: as §3, §2

Viola tricolor [9] = assay: Post-emergence herbicidal action, VIOTR; conditions: 80 g/ha, Table D
Method: as §3, §2

ECHCG = assay: Post-emergence herbicidal action, ECHCG; conditions: 80 g/ha, Table C
Method: as §3

Pharbitis purpureum = assay: Post-emergence herbicidal action, PHBPU; conditions: 80 g/ha, Table D
Method: as §3, §2

Avena fatua = assay: Pre-emergence herbicidal action, AVEFA; conditions: dosage 320 g/ha, scored visually after 3 weeks vs untreated controls
From the text: as §1, §2

Setaria viridis [10] = assay: Pre-emergence herbicidal action, SETVI; conditions: dosage 320 g/ha, scored visually after 3 weeks vs untreated controls
From the text: as §1, §2

Alopecurus myosuroides = assay: Pre-emergence herbicidal action, ALOMY; conditions: dosage 320 g/ha, scored visually after 3 weeks vs untreated controls
From the text: as §1, §2

Cyperus serotinus = assay: Pre-emergence herbicidal action, CYPES; conditions: dosage 320 g/ha, scored visually after 3 weeks vs untreated controls
From the text: as §1, §2

SMILES	herbicidal activity ABUTH (Abutilon theophrasti [1])	herbicidal activity AMARE (Amaranthus retroflexus [2])	herbicidal activity MATIN (Matricaria inodora)	Herbicidal activity STEME (Stellaria media [3])	herbicidal activity VIOTR (Viola tricolor [4])	herbicidal activity ABUTH (Abutilon theophrasti [5])	herbicidal activity AMARE (Amaranthus retroflexus [6])	herbicidal activity SETVI (Setaria viridis [7])	Herbicidal activity STEME (Stellaria media [8])	herbicidal activity VIOTR (Viola tricolor [9])	Herbicidal activity ECHCG (ECHCG)	Herbicidal activity PHBPU (Pharbitis purpureum)	herbicidal activity AVEFA (Avena fatua)	herbicidal activity SETVI (Setaria viridis [10])	herbicidal activity ALOMY (Alopecurus myosuroides)	herbicidal activity CYPES (Cyperus serotinus)
CSc1c(C(F)F)ccc(C(=O)Nc2ncnn2C)c1F [Example 4-37]	100%	100%	100%	100%	90%	80%	100%	90%	80%	80%	80%	–	–	–	–	–
CC[S+]([O-])c1c(C(F)F)ccc(C(=O)Nc2ncnn2C)c1C (stereo not drawn) [Example 4-5]	–	100%	90%	–	100%	80%	90%	90%	90%	100%	90%	90%	–	–	–	–
CCSc1c(C(F)F)ccc(C(=O)Nc2nonc2Cl)c1C [Example 6-4]	90%	100%	90%	90%	100%	90%	–	100%	90%	100%	100%	80%	90%	100%	–	–
CCSc1c(C(F)F)ccc(C(=O)Nc2ncnn2C)c1C [Example 4-4]	–	100%	100%	100%	100%	80%	100%	90%	90%	100%	100%	80%	–	–	–	–
CCn1nnnc1NC(=O)c1ccc(C(F)F)c(S(=O)(=O)CC)c1F [Example 2-42]	100%	100%	100%	90%	100%	100%	90%	100%	100%	100%	100%	90%	90%	100%	90%	90%
CC[S+]([O-])c1c(C(F)F)ccc(C(=O)Nc2nonc2Cl)c1C (stereo not drawn) [Example 6-5]	100%	100%	90%	90%	100%	80%	–	90%	90%	100%	100%	–	90%	100%	90%	–
CC[S+]([O-])c1c(C(F)F)ccc(C(=O)Nc2ncnn2C)c1F (stereo not drawn) [Example 4-41]	100%	100%	–	80%	90%	100%	90%	–	90%	90%	80%	90%	–	80%	–	–
Cn1ncnc1NC(=O)c1ccc(C(F)F)c([S+](C)[O-])c1F (stereo not drawn) [Example 4-38]	90%	–	–	–	–	90%	90%	–	90%	100%	80%	90%	–	–	–	–
CCS(=O)(=O)c1c(C(F)F)ccc(C(=O)Nc2nnnn2C)c1F [Example 1-42]	100%	100%	100%	100%	100%	90%	100%	90%	100%	100%	80%	100%	100%	100%	100%	100%
CCS(=O)(=O)c1c(C(F)F)ccc(C(=O)Nc2ncnn2C)c1C [Example 4-6]	100%	100%	100%	90%	100%	100%	100%	100%	100%	100%	100%	80%	–	90%	–	100%
CCSc1c(C(F)F)ccc(C(=O)Nc2ncnn2C)c1F [Example 4-40]	100%	100%	100%	100%	100%	80%	100%	90%	90%	80%	90%	–	–	80%	–	100%
